# Assay results: patent US20230192700A1, “PYRAZOLOPYRAZINES ACTING ON CANCERS VIA INHIBITION OF CDK12” (Bayer Aktiengesellschaft, priority 2020, published 2023)
# pIC50: −log10 of the molar value.
# Legend:
# [1] = system: CAL-120 human breast adenocarcinoma cells; assay: Proliferation assay CAL-120 (crystal violet); type: cell-based; conditions: Homo sapiens, CAL-120, 96 h, CAL-120 cells, 4 days, median, read-out: Prolif-CAL-120— IC50 - [mol/l] (median)
# Summary of the method: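 Cells seeded at 4,000/well in medium with 10% fetal calf serum, dosed after 24 h (0.01-10 micromol/L, 0.1% DMSO) and grown 4 days. Crystal violet staining read at 595 nm, normalised to zero-point plate (0%) and untreated cells (100%); IC50 by 4-parameter fit.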
# CYCLIN K = target: T1, CYCLIN K (Homo sapiens, UniProt O75909); assay: CYCLIN K nuclear protein level: immunofluorescence/high content analysis in CAL-120 cells; type: cell-based; conditions: 24 h, nuclear CCNK staining intensity, median, read-out: CYCLIN K degradation IF, DC50- [mol/l] (median)
# T1 construct: endogenous in cells; host or cells: CAL-120 human breast cancer cells (DSMZ ACC 459)
# Summary of the method: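 CAL-120 cells were incubated with compound in dose-response for 24 h at 37° C, then fixed, immunostained for CYCLIN K and Hoechst-counterstained. Confocal imaging gave nuclear intensity. DC50 is the concentration giving 50% reduction of nuclear CCNK staining relative to DMSO and reference controls.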
# T1 sequence (O75909 whole entry): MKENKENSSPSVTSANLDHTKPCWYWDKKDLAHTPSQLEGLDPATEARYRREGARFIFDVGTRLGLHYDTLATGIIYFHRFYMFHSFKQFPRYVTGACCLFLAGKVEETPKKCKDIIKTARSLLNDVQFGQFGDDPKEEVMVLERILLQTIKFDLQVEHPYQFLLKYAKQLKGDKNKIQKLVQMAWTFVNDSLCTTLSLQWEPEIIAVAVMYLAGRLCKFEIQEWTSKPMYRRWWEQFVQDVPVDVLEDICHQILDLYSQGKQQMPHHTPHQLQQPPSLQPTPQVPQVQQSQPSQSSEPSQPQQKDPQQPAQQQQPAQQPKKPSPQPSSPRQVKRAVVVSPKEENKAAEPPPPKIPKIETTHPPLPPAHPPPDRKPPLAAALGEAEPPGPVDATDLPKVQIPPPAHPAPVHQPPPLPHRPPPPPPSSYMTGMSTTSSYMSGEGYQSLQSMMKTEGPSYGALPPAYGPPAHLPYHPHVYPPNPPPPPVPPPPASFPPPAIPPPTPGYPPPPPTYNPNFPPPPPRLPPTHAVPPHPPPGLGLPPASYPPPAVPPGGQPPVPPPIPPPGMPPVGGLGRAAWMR
# T1 sequence (Q9NYV4 whole entry partner): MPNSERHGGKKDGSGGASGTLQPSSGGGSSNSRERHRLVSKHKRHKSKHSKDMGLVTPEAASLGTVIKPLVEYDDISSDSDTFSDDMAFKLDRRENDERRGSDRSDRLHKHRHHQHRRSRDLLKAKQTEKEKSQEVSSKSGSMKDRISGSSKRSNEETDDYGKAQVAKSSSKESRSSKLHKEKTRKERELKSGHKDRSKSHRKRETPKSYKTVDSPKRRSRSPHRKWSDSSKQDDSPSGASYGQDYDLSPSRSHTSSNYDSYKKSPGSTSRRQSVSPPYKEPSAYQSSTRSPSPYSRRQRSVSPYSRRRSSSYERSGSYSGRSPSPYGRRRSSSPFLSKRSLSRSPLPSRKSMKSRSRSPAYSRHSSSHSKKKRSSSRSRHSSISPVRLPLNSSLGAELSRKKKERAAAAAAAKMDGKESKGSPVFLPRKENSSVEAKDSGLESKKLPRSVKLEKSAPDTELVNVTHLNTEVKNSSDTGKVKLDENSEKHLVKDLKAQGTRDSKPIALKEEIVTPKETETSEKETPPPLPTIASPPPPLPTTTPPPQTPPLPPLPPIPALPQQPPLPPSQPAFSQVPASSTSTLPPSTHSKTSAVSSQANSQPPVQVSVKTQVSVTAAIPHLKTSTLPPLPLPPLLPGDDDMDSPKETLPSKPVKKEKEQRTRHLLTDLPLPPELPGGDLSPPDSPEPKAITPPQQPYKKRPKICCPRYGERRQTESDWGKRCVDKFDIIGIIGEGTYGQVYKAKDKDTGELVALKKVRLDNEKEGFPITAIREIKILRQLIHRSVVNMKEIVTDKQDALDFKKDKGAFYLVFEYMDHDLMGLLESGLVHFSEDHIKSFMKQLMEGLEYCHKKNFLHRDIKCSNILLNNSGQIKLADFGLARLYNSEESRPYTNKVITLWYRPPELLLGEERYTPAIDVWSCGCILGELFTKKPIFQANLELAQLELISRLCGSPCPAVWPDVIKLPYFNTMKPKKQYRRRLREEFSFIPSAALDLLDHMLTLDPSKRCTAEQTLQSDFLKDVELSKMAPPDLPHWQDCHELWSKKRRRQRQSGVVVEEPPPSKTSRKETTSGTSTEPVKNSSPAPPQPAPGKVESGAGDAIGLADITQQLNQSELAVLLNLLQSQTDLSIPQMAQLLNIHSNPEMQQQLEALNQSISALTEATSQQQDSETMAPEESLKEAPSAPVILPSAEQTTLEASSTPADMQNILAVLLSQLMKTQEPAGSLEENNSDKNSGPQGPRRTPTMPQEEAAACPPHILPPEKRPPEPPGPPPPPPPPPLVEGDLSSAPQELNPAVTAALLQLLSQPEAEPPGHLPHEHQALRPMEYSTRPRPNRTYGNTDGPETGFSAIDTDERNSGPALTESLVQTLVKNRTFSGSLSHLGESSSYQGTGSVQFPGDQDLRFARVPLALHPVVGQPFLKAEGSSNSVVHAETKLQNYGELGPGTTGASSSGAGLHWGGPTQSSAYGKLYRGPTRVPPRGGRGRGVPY
Structure (SMILES),pIC50 [1],DC50 (CYCLIN K) [nM]
"CC1CC(n2nc(NCc3nc4ccccc4[nH]3)c3ncc(C4CC4)nc32)CCO1 (racemic) [Example 44, (±)-cis/trans-N-[(1H-benzimidazol-2-yl)methyl]-6-cyclopropyl-1-(2-methyloxan-4-yl)-1H-pyrazolo[3,4-b]pyrazin-3-amine]",7.63,13.5
"CN1CCC(n2nc(NCc3nc4ccccc4[nH]3)c3ncc(C4CC4)nc32)CC1 [Example 1, N-[(1H-benzimidazol-2-yl)methyl]-6-cyclopropyl-1-(1-methylpiperidin-4-yl)-1H-pyrazolo[3,4-b]pyrazin-3-amine]",7.48,7.1
"c1ccc2[nH]c(CNc3nn(C4CCOCC4)c4nc(C5CC5)cnc34)nc2c1 [Example 16, N-[(1H-benzimidazol-2-yl)methyl]-6-cyclopropyl-1-(oxan-4-yl)-1H-pyrazolo[3,4-b]pyrazin-3-amine]",6.99,> 677
"CN(C)CCn1nc(NCc2nc3ccccc3[nH]2)c2ncc(C3CC3)nc21 [Example 68, N-[(1H-benzimidazol-2-yl)methyl]-6-cyclopropyl-1-[2-(dimethylamino)ethyl]-1H-pyrazolo[3,4-b]pyrazin-3-amine]",6.58,20.7

# The remaining lines, values ahead:
pIC50 [1],DC50 (CYCLIN K) [nM],Structure (SMILES)
7.85,6.22,"Cc1cccc2[nH]c(CNc3nn(C4CCN(C)CC4)c4nc(C5CC5)cnc34)nc12 [Example 8, 6-cyclopropyl-N-[(4-methyl-1H-benzimidazol-2-yl)methyl]-1-(1-methylpiperidin-4-yl)-1H-pyrazolo[3,4-b]pyrazin-3-amine]"
8.19,2.16,"c1ccc2[nH]c(CNc3nn(C4CCNCC4)c4nc(C5CC5)cnc34)nc2c1 [Example 12, N-[(1H-benzimidazol-2-yl)methyl]-6-cyclopropyl-1-(piperidin-4-yl)-1H-pyrazolo[3,4-b]pyrazin-3-amine]"
6.91,25.7,"c1ccc2[nH]c(CNc3nn(C4CCC4)c4nc(C5CC5)cnc34)nc2c1 [Example 49, N-[(1H-benzimidazol-2-yl)methyl]-1-cyclobutyl-6-cyclopropyl-1H-pyrazolo[3,4-b]pyrazin-3-amine]"
